In the NIST ThermoML archive (doi:10.1016/j.fluid.2010.08.022):
± gives the expanded uncertainty stated by the source.

Details: 101.33 kPa; for speed of sound: Sing-around technique in a fixed-path interferometer; for mass density: Vibrating tube method

CCCCCCCC/C=C\CCCCCCCC(=O)O.NCCO [2-hydroxyethylammonium oleate]
Details	mass density [kg/m3]	speed of sound [m/s]
278.16 K, Crystal	955.929 ± 2.9	1635.4 ± 3.7
278.41 K, Crystal	955.757 ± 2.9	1634.1 ± 3.7
278.66 K, Crystal	955.58 ± 2.9	1632.7 ± 3.7
278.9 K, Crystal	955.409 ± 2.9	1631.4 ± 3.7
279.16 K, Crystal	955.234 ± 2.9	1630 ± 3.7
279.41 K, Crystal	955.057 ± 2.9	1628.7 ± 3.7
279.65 K, Crystal	954.881 ± 2.9	1627.4 ± 3.7
279.91 K, Crystal	954.704 ± 2.9	1626.1 ± 3.7
280.16 K, Crystal	954.527 ± 2.9	1624.7 ± 3.7
280.41 K, Crystal	954.349 ± 2.8	1623.4 ± 3.7
280.65 K, Crystal	954.172 ± 2.8	1622.1 ± 3.7
280.91 K, Crystal	953.991 ± 2.8	1620.8 ± 3.7
281.15 K, Crystal	953.811 ± 2.8	1619.5 ± 3.7
281.41 K, Crystal	953.63 ± 2.8	1618.2 ± 3.7
281.66 K, Crystal	953.448 ± 2.8	1616.8 ± 3.7
281.91 K, Crystal	953.266 ± 2.8	1615.5 ± 3.7
282.16 K, Crystal	953.081 ± 2.8	1614.2 ± 3.7
282.41 K, Crystal	952.898 ± 2.8	1612.9 ± 3.7
282.66 K, Crystal	952.714 ± 2.8	1611.6 ± 3.7
282.91 K, Crystal	952.526 ± 2.8	1610.3 ± 3.7
283.16 K, Crystal	952.337 ± 2.8	1608.9 ± 3.7
283.41 K, Crystal	952.15 ± 2.8	1607.6 ± 3.7
283.66 K, Crystal	951.962 ± 2.8	1606.3 ± 3.7
283.91 K, Crystal	951.769 ± 2.8	1605 ± 3.7
284.16 K, Crystal	951.578 ± 2.8	1603.6 ± 3.7
284.41 K, Crystal	951.383 ± 2.8	1602.3 ± 3.7
284.66 K, Crystal	951.188 ± 2.8	1600.8 ± 3.7
284.91 K, Crystal	950.989 ± 2.8	1599.3 ± 3.7
285.15 K, Crystal	950.796 ± 2.8	1597.7 ± 3.7
285.4 K, Crystal	950.604 ± 2.8	1595.8 ± 3.7
285.65 K, Crystal	950.404 ± 2.8	1592.8 ± 3.7
285.9 K, Crystal	950.405 ± 2.8	1593.2 ± 3.7
286.15 K, Liquid crystal of unknown type	944.693 ± 1.7	1554.4 ± 3.7
286.4 K, Liquid crystal of unknown type	944.221 ± 1.7	1552.7 ± 3.7
286.65 K, Liquid crystal of unknown type	944.256 ± 1.7	1553.3 ± 3.7
286.9 K, Liquid crystal of unknown type	943.886 ± 1.7	1551.5 ± 3.7
287.15 K, Liquid crystal of unknown type	943.629 ± 1.7	1550.2 ± 3.7
287.4 K, Liquid crystal of unknown type	943.416 ± 1.7	1548.9 ± 3.7
287.65 K, Liquid crystal of unknown type	943.228 ± 1.7	1547.7 ± 3.7
287.9 K, Liquid crystal of unknown type	943.055 ± 1.7	1546.7 ± 3.7
288.15 K, Liquid crystal of unknown type	942.888 ± 1.7	1545.7 ± 3.7
288.4 K, Liquid crystal of unknown type	942.726 ± 1.7	1544.7 ± 3.7
288.65 K, Liquid crystal of unknown type	942.565 ± 1.7	1543.7 ± 3.7
288.9 K, Liquid crystal of unknown type	942.405 ± 1.7	1542.7 ± 3.7
289.15 K, Liquid crystal of unknown type	942.244 ± 1.7	1541.8 ± 3.7
289.4 K, Liquid crystal of unknown type	942.083 ± 1.7	1540.8 ± 3.7
289.65 K, Liquid crystal of unknown type	941.923 ± 1.7	1539.9 ± 3.7
289.9 K, Liquid crystal of unknown type	941.764 ± 1.7	1539 ± 3.7
290.15 K, Liquid crystal of unknown type	941.604 ± 1.7	1538.1 ± 3.7
290.4 K, Liquid crystal of unknown type	941.445 ± 1.7	1537.2 ± 3.7
290.66 K, Liquid crystal of unknown type	941.282 ± 1.7	1536.2 ± 3.7
290.9 K, Liquid crystal of unknown type	941.124 ± 1.7	1535.3 ± 3.7
291.15 K, Liquid crystal of unknown type	940.965 ± 1.7	1534.4 ± 3.7
291.4 K, Liquid crystal of unknown type	940.805 ± 1.7	1533.5 ± 3.7
291.65 K, Liquid crystal of unknown type	940.646 ± 1.7	1532.6 ± 3.7
291.91 K, Liquid crystal of unknown type	940.485 ± 1.7	1531.7 ± 3.7
292.15 K, Liquid crystal of unknown type	940.327 ± 1.7	1530.8 ± 3.7
292.41 K, Liquid crystal of unknown type	940.167 ± 1.7	1530 ± 3.7
292.65 K, Liquid crystal of unknown type	940.008 ± 1.7	1529.1 ± 3.7
292.9 K, Liquid crystal of unknown type	939.848 ± 1.7	1528.2 ± 3.7
293.16 K, Liquid crystal of unknown type	939.688 ± 1.7	1527.3 ± 3.7
293.4 K, Liquid crystal of unknown type	939.529 ± 1.7	1526.4 ± 3.7
293.66 K, Liquid crystal of unknown type	939.369 ± 1.7	1525.5 ± 3.7
293.9 K, Liquid crystal of unknown type	939.211 ± 1.7	1524.6 ± 3.7
294.16 K, Liquid crystal of unknown type	939.05 ± 1.7	1523.7 ± 3.7
294.41 K, Liquid crystal of unknown type	938.892 ± 1.7	1522.9 ± 3.7
294.66 K, Liquid crystal of unknown type	938.731 ± 1.7	1522 ± 3.7
294.91 K, Liquid crystal of unknown type	938.572 ± 1.7	1521.1 ± 3.7
295.16 K, Liquid crystal of unknown type	938.414 ± 1.7	1520.2 ± 3.7
295.41 K, Liquid crystal of unknown type	938.256 ± 1.7	1519.4 ± 3.7
295.66 K, Liquid crystal of unknown type	938.095 ± 1.7	1518.5 ± 3.7
295.91 K, Liquid crystal of unknown type	937.936 ± 1.7	1517.6 ± 3.7
296.16 K, Liquid crystal of unknown type	937.777 ± 1.7	1516.8 ± 3.7
296.41 K, Liquid crystal of unknown type	937.618 ± 1.7	1515.9 ± 3.7
296.66 K, Liquid crystal of unknown type	937.459 ± 1.7	1515 ± 3.7
296.91 K, Liquid crystal of unknown type	937.301 ± 1.7	1514.2 ± 3.7
297.16 K, Liquid crystal of unknown type	937.14 ± 1.7	1513.3 ± 3.7
297.41 K, Liquid crystal of unknown type	936.981 ± 1.7	1512.5 ± 3.7
297.66 K, Liquid crystal of unknown type	936.822 ± 1.7	1511.6 ± 3.7
297.91 K, Liquid crystal of unknown type	936.662 ± 1.7	1510.8 ± 3.7
298.15 K, Liquid crystal of unknown type	936.505 ± 1.7	1509.9 ± 3.7
298.41 K, Liquid crystal of unknown type	936.345 ± 1.7	1509 ± 3.7
298.66 K, Liquid crystal of unknown type	936.186 ± 1.7	1508.2 ± 3.7
298.91 K, Liquid crystal of unknown type	936.026 ± 1.7	1507.3 ± 3.7
299.15 K, Liquid crystal of unknown type	935.868 ± 1.7	1506.5 ± 3.7
299.41 K, Liquid crystal of unknown type	935.709 ± 1.7	1505.6 ± 3.7
299.66 K, Liquid crystal of unknown type	935.55 ± 1.7	1504.8 ± 3.7
299.91 K, Liquid crystal of unknown type	935.39 ± 1.7	1503.9 ± 3.7
300.16 K, Liquid crystal of unknown type	935.231 ± 1.7	1503 ± 3.7
300.41 K, Liquid crystal of unknown type	935.072 ± 1.7	1502.2 ± 3.7
300.66 K, Liquid crystal of unknown type	934.914 ± 1.7	1501.3 ± 3.7
300.9 K, Liquid crystal of unknown type	934.755 ± 1.7	1500.5 ± 3.7
301.16 K, Liquid crystal of unknown type	934.596 ± 1.7	1499.7 ± 3.7
301.41 K, Liquid crystal of unknown type	934.436 ± 1.7	1498.8 ± 3.7
301.66 K, Liquid crystal of unknown type	934.277 ± 1.7	1498 ± 3.7
301.91 K, Liquid crystal of unknown type	934.118 ± 1.7	1497.1 ± 3.7
302.16 K, Liquid crystal of unknown type	933.959 ± 1.7	1496.3 ± 3.7
302.41 K, Liquid crystal of unknown type	933.802 ± 1.7	1495.5 ± 3.7
302.66 K, Liquid crystal of unknown type	933.642 ± 1.7	1494.6 ± 3.7
302.91 K, Liquid crystal of unknown type	933.483 ± 1.7	1493.8 ± 3.7
303.16 K, Liquid crystal of unknown type	933.324 ± 1.7	1492.9 ± 3.7
303.4 K, Liquid crystal of unknown type	933.167 ± 1.7	1492.1 ± 3.7
303.66 K, Liquid crystal of unknown type	933.005 ± 1.7	1491.3 ± 3.7
303.91 K, Liquid crystal of unknown type	932.846 ± 1.7	1490.4 ± 3.7
304.16 K, Liquid crystal of unknown type	932.688 ± 1.7	1489.6 ± 3.7
304.41 K, Liquid crystal of unknown type	932.529 ± 1.7	1488.8 ± 3.7
304.66 K, Liquid crystal of unknown type	932.371 ± 1.7	1488 ± 3.7
304.91 K, Liquid crystal of unknown type	932.212 ± 1.7	1487.1 ± 3.7
305.16 K, Liquid crystal of unknown type	932.053 ± 1.7	1486.3 ± 3.7
305.41 K, Liquid crystal of unknown type	931.892 ± 1.7	1485.5 ± 3.7
305.66 K, Liquid crystal of unknown type	931.734 ± 1.7	1484.7 ± 3.7
305.9 K, Liquid crystal of unknown type	931.576 ± 1.7	1483.8 ± 3.7
306.16 K, Liquid crystal of unknown type	931.416 ± 1.7	1483 ± 3.7
306.4 K, Liquid crystal of unknown type	931.258 ± 1.7	1482.2 ± 3.7
306.66 K, Liquid crystal of unknown type	931.098 ± 1.7	1481.4 ± 3.7
306.91 K, Liquid crystal of unknown type	930.939 ± 1.7	1480.5 ± 3.7
307.16 K, Liquid crystal of unknown type	930.781 ± 1.7	1479.7 ± 3.7
307.41 K, Liquid crystal of unknown type	930.622 ± 1.7	1478.9 ± 3.7
307.66 K, Liquid crystal of unknown type	930.464 ± 1.7	1478.1 ± 3.7
307.91 K, Liquid crystal of unknown type	930.304 ± 1.7	1477.3 ± 3.7
308.16 K, Liquid crystal of unknown type	930.145 ± 1.7	1476.4 ± 3.7
308.41 K, Liquid crystal of unknown type	929.987 ± 1.7	1475.6 ± 3.7
308.65 K, Liquid crystal of unknown type	929.828 ± 1.7	1474.8 ± 3.7
308.91 K, Liquid crystal of unknown type	929.668 ± 1.7	1474 ± 3.7
309.16 K, Liquid crystal of unknown type	929.509 ± 1.7	1473.2 ± 3.7
309.4 K, Liquid crystal of unknown type	929.35 ± 1.7	1472.3 ± 3.7
309.66 K, Liquid crystal of unknown type	929.189 ± 1.7	1471.5 ± 3.7
309.91 K, Liquid crystal of unknown type	929.032 ± 1.7	1470.7 ± 3.7
310.16 K, Liquid crystal of unknown type	928.874 ± 1.7	1469.9 ± 3.7
310.41 K, Liquid crystal of unknown type	928.713 ± 1.7	1469 ± 3.7
310.66 K, Liquid crystal of unknown type	928.554 ± 1.7	1468.2 ± 3.7
310.91 K, Liquid crystal of unknown type	–	1467.4 ± 3.7
